The values that follow come from patent US20240335429A1, “MOLECULAR GLUE AND SALL4 DEGRADER” (National University of Singapore, priority 2021, published 2024).

Common to all, as to format: cell-based
One experiment concerns the target T1, SALL4B (Homo sapiens, UniProt Q9UJQ4).
T1 construct: endogenous in cells; host or cells: SNU-398 HCC cells
T1 sequence (Q9UJQ4 1-616 isoform Q9UJQ4-2): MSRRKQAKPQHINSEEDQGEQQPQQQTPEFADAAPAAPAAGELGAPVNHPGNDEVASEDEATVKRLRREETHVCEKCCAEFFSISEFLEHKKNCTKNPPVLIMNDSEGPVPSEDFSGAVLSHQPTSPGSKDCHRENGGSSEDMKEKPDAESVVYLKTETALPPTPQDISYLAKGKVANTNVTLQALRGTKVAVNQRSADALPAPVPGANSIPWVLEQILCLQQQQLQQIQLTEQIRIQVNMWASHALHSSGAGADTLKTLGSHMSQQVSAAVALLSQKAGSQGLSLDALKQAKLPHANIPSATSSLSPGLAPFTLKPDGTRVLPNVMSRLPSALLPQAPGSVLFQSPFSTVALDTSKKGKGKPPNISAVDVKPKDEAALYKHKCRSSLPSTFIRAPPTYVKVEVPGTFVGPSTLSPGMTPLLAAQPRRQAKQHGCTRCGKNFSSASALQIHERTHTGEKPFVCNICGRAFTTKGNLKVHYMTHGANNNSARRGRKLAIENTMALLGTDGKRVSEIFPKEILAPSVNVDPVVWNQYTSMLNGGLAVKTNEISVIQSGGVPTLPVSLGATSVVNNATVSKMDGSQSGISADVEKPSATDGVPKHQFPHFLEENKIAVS
In words: Immunoblot of endogenous SALL4B in SNU-398 HCC cells. The method, then:
(§1) RIPA buffer containing freshly added protease inhibitors (2 mM PMSF) and protease inhibitor cocktail was used for cell lysis. The lysed cells were incubated for 10 min on ice and subsequently centrifuged at 4° C. for 10 min at 14,000 rpm. The protein concentrations of cell lysates were assessed using Bradford Assay as per manufacturer's instructions. The samples were denatured using 4× Sample buffer at 95° C. for 5 min. The samples were size resolved using polyacrylamide gel (8%) and Mini-PROTEAN Tetra Cell module. The size-resolved proteins were transferred onto PVDF via electroblotting using Mini Trans-Blot® module. The membrane was blocked using 5% BSA in TBST. The membrane was incubated with appropriate primary antibody (overnight) and secondary antibody (1 h). Immobilon Crescendo Western HRP substrate was used for signal development and images were acquired using darkroom development techniques.
A head-to-head comparison between the newly discovered SALL4 degrader QE-18-WG07 and IMiDs (Pomalidomide and Thalidomide) was performed. To assess the differential isoform degradation and biological consequences induced by QE-18-WG07 and IMiDs in cancer cells, the inventors employed the newly developed SALL4 isoform-specific cellular luciferase reporter system in Example 1 (FIG. 1A), and human HCC cell lines (SNU-398 and SNU-182), and NSCLC cell line H661 that have a high SALL4 level endogenously. The inventors treated H1299 cells overexpressing SALL4B_Nluc and the HCC (SNU-398, SNU-182) and NSCLC cells (H661) with increasing concentrations of QE-18-WG07 and IMiDs, and assayed the SALL4B_Nluc, as well as the endogenous SALL4A and B levels by immunoblots described in Example 4.
26S proteasome complex and neddylation was inhibited by cotreating MG132 at 1 and 3 μM and MLN4924 at 10 and 15 μM for 18 h, 20 h, 24 h or 48 h with desired concentrations of QE-18-WG07 in SNU-398, H661 and SNU-182 cells. After 18 h or 24 h of treatment, cells were then lysed and subjected to further protein extraction and immunoblotting by following the protocol in Example 4. For caspase glo assay, 20 h of cotreatment was performed by following the protocol in Example 5. For viability assay, 48 h of cotreatment was carried out by following the protocol in Example 5.
For lentiviral transduction, SNU-398 cells were spun with lentiviral particles containing the aforementioned vectors in RPMI (plus 10% FBS, 8 μg/mL polybrene) at 800 g for 60 minutes at room temperature. 96 h post-infection, cells were seeded in 6-well or 384-well plates and incubated overnight at 37° C., 5% CO2. Cells were then treated with DMSO or QE-18-WG07 at desired concentrations (0.5% final DMSO) for 18 h and 24 h. Immunoblot analysis was subsequently performed with the indicated antibodies by following the protocol in Example 4. […]

In another experiment the target is T2, IKZF3 (Homo sapiens, UniProt Q9UKT9).
T2 construct: with immunoblots in SNU-398 HCC cells; endogenous in cells; host or cells: SNU-398 HCC cells
T2 sequence (Q9UKT9 whole entry): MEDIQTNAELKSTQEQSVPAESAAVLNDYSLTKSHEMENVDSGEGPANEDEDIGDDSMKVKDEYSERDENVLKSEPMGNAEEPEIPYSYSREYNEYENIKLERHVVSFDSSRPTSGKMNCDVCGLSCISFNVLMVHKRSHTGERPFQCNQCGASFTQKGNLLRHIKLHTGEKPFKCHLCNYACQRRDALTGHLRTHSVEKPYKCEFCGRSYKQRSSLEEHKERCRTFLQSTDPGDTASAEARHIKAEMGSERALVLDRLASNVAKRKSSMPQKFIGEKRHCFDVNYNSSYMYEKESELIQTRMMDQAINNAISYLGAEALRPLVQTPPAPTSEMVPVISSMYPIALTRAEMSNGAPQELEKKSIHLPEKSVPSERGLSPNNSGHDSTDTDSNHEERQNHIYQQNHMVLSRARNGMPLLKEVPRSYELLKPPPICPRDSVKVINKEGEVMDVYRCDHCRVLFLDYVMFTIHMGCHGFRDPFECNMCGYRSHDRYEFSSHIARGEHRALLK
In words: Immunoblot of IKZF3 in SNU-398 HCC cells. As to conditions: SNU-398 cells. The method, then:
as §1
A general note: Immunoblotting shows a protein as a band on a membrane.

For another experiment, the system named is H661 cells. In words: CellTiter-Glo viability assay, H661. The settings on record: Homo sapiens. How it is done:
Cells were plated in RPMI culture media (40 μL) in 384-well white, flat-bottom plates (Corning) and incubated at 37° C. in a humidified atmosphere of 5% CO2 overnight. The numbers of cells per well were 1,500 for SNU-398 and SNU-182, 750 for SNU-387, SNU-449, SNU-475 and SNU-423, and 1,000 for H661 and H1299. After overnight incubation, 10 μL of drug (1% DMSO in RPMI) at designed concentrations were added to the cells. The cells were then incubated for 16, 24, 48, 72, or 96 h at 37° C. in a humidified atmosphere of 5% CO2 before CellTiter-Glo reagent (10 μL) was dispensed to the wells. The cells were incubated at room temperature for a minimum of 10 min. After that, luminescence readings were recorded by a Microplate Reader (PHERAstar or Tecan Infinite M200 Pro) according to the manufacturer's instruction for measuring the luminescence.
On the technique in general: Cellular ATP, detected with luciferase, serves as a proxy for viable cell number.

Broadly, the IC50 is the point on the concentration scale where inhibition reaches its midpoint. Broadly, the EC50 is the concentration giving half of the maximal effect.

`COc1ccccc1NC(=O)Nc1ccc([N+](=O)[O-])cc1O` [QE-18-WG07]: the “degradation of endogenous SALL4B after CRBN knockdown by shRNA” value at SALL4B (CRBN-KD SNU-398 cells, 18 h) is recorded as “prevented”. Besides, at SALL4B (SNU-398, SNU-182 and H661 cells), the “SALL4B degradation under MG132 or MLN4924 cotreatment” value is given as “chemically rescued”. This compound also displayed a Dmax at SALL4B (SNU-398 HCC cells, 24 h of treatment, immunoblot quantification) of 87%. The DC50 on SALL4B (SNU-398 cells, 24 h, immunoblot quantification) is approximately 640 nM. Moreover, at IKZF3, the “degradation of IKZF3” value is recorded as “did not degrade”. Besides, the Emax at 1 µM in the experiment with H661 cells (NCI-H661, 72 h, achieved at 1 μM, read-out: maximum growth inhibition Emax) was 90 to 100%. In addition, the half-inhibitory concentration (IC50) in the experiment with H661 cells (NCI-H661, 72 h, read-out: IC50 of cell viability) amounted to 522 nM. The concentration giving a half-maximal response (EC50) in the experiment with H661 cells (NCI-H661, 72 h cell viability, read-out: half maximal growth inhibition EC50) was 420 nM.
